According to patent US20220304911A1, “ORAL CARE PRODUCT WITH CANNABINOID COMPOUNDS” (Demetrix, Inc., priority 2021, published 2022):
Values after ≈ are worked out from the molar mass of the structure shown. Like-named read-outs stand apart in the source and are kept apart here.

System: Streptococcus mutans (S. mutans)
Assay: minimum inhibitory concentration (MIC) assay against S. mutans
Type: cell-based
Description: As used herein “minimum inhibitory concentration” or “MIC” refers to the lowest concentration (in μg/mL) of an antibiotic that inhibits the growth of a given strain of bacteria.
To determine the ability of the cannabinoid compounds described herein to reduce, or eliminate, S. mutans, a minimum inhibitory concentration (“MIC”) assay was performed. The assay was performed by Charles River Discovery Research Services UK Limited (Portishead, United Kingdom) in accordance with industry standards.

[1] = S. mutans, assay performed by Charles River Discovery Research Services UK Limited
[2] = Streptococcus mutans, read-out: minimum inhibitory concentration (MIC) against S. mutans

Molecule	MIC [1] [µg/mL]	MIC (Streptococcus mutans) [µg/mL]	MIC [2] [µg/mL]	further results
C=C(C)[C@@H]1CCC(C)=C[C@H]1c1c(O)cc(CC)cc1O [CBD-C2, cannabidiol ethyl]	25 (≈ 91.8 µM)	–	–	–
CCCCCc1cc(O)c2c(c1)OC(C)(CCC=C(C)C)C=C2 (stereo not shown) [CBC, cannabichromene]	–	25 (≈ 79.5 µM)	< 25	–
C=C(C)[C@@H]1CCC(C)=C[C@H]1c1c(O)cc(CCCC)cc1O [CBD-C4, cannabidibutol]	25 (≈ 83.2 µM)	–	–	–
CCCCc1cc(O)c(C/C=C(\C)CCC=C(C)C)c(O)c1C(=O)O [CBGA-C4, cannabigerolic acid butyl]	12.5 (≈ 36.1 µM)	–	–	–
C=C(C)[C@@H]1CCC(C)=C[C@H]1c1c(O)cc(CCCCC)cc1O [CBD, cannabidiol]	–	–	–	MIC (Streptococcus mutans, S. mutans, assay performed by Charles River Discovery Research Services UK Limited, read-out: MIC): 25 µg/mL (≈ 79.5 µM); MIC (Streptococcus mutans, S. mutans, summary statement in the description, read-out: minimum inhibitory concentration (MIC) against S. mutans): < 25 µg/mL
CCCc1cc(O)c(C/C=C(\C)CCC=C(C)C)c(O)c1 [CBGV, cannabigerovarin]	25 (≈ 86.7 µM)	–	–	–
CCCCCc1cc(O)c2c(c1)OC(C)(C)c1ccc(C)cc1-2 [CBN, cannabinol]	–	50 (≈ 161 µM)	> 25	–
CCCCCc1cc(O)c2c(c1)OC1(C)CCC3C1C2C3(C)C (stereo not shown) [CBL, cannabicyclol]	–	> 200	> 25	–
C=C(C)[C@@H]1CCC(C)=C[C@H]1c1c(O)cc(CCC)c(C(=O)O)c1O [CBDVA, cannabidivarinic acid]	25 (≈ 75.7 µM)	–	–	–
CCCCc1cc(O)c(CC=C(C)CCC=C(C)C)c(O)c1 [CBG-C4, cannabigerol butyl]	25 (≈ 82.7 µM)	–	–	–
CCCc1cc(O)c(C/C=C(\C)CCC=C(C)C)c(O)c1C(=O)O [CBGVA, cannabigerovarinic acid]	>200	–	–	–
CCCCCc1cc2c(c(O)c1C(=O)O)-c1cc(C)ccc1C(C)(C)O2 [CBNA, cannabinolic acid]	>200	–	–	–
C=C(C)[C@@H]1CCC(C)=C[C@H]1c1c(O)cc(CCC)cc1O [CBDV, cannabidivarin]	–	25 (≈ 87.3 µM)	< 25	–
C=C(C)[C@@H]1CCC(C)=C[C@H]1c1c(O)cc(CCCCC)c(C(=O)O)c1O [CBDA, cannabidiolic acid]	–	25 (≈ 69.7 µM)	< 25	–
CCCCCc1cc2c(c(O)c1C(=O)O)C=CC(C)(CCC=C(C)C)O2 (stereo not shown) [CBCA, cannabichromenic acid]	>200	–	–	–
CCCCCc1cc2c(c(O)c1C(=O)O)C1C3C(CCC3(C)O2)C1(C)C (stereo not shown) [CBLA, cannabicyclolic acid]	>200	–	–	–
CCCCCc1cc(O)c(C/C=C(\C)CCC=C(C)C)c(O)c1 [CBG, cannabigerol]	–	25 (≈ 79 µM)	< 25	–
CCCCCc1cc(O)c(C/C=C(\C)CCC=C(C)C)c(O)c1C(=O)O [CBGA, cannabigerolic acid]	–	25 (≈ 69.3 µM)	< 25	–
C=C(C)[C@@H]1CCC(C)=C[C@H]1c1c(O)cc(C)cc1O [CBD-C1]	100 (≈ 387 µM)	–	–	–
(+)-cannabidiol [(+)-CBD]	25	–	–	–
